Assay results published in ChEMBL document CHEMBL1201862, “PubChem BioAssay data set” (2004).
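These data come from cells grown in 96-well plates and exposed to compound for 48 hours at five concentrations. GI50 is the concentration that inhibits growth by half.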 Calls of active or inactive are those of the source. Rule as the data show it: active = GI50 up to about 1.1 µM and inactive = higher.

How the values were obtained:
Assay in all cases: inhibition of tumour cell growth, NCI panel, 48 h
MDA-MB-231 = test system: MDA-MB-231
Hs-578T = test system: Hs-578T
CAKI-1 = test system: CAKI-1
HCC 2998 = test system: HCC 2998
MOLT-4 = test system: MOLT-4
NCI/ADR-RES = test system: NCI/ADR-RES
HL-60 = test system: HL-60
K562 = test system: K562
MCF7 = test system: MCF7
DU-145 = test system: DU-145
T47D = test system: T47D
CCRF-CEM = test system: CCRF-CEM
PC-3 = test system: PC-3
786-0 = test system: 786-0
Malme-3M = test system: Malme-3M
MDA-N = test system: MDA-N
UACC-62 = test system: UACC-62

| SMILES | GI50 (MDA-MB-231) | GI50 (Hs-578T) | GI50 (CAKI-1) | GI50 (HCC 2998) | GI50 (MOLT-4) | GI50 (NCI/ADR-RES) | GI50 (HL-60) | GI50 (K562) | GI50 (MCF7) | GI50 (DU-145) | GI50 (T47D) | GI50 (CCRF-CEM) | GI50 (PC-3) | GI50 (786-0) | GI50 (Malme-3M) | GI50 (MDA-N) | GI50 (UACC-62) |
| --- | --- | --- | --- | --- | --- | --- | --- | --- | --- | --- | --- | --- | --- | --- | --- | --- | --- |
| CCOC(=O)/C(=C/c1cn(C(C)=O)c2ccccc12)P(=O)(OC)OC | 43.8 µM (inactive) | 31 µM (inactive) | 31.9 µM (inactive) | > 10 µM (inactive) | 25.4 µM (inactive) | 29.2 µM (inactive) | 18 µM (inactive) | 25.6 µM (inactive) | < 0.01 µM (active) | 22.2 µM (inactive) | 13.7 µM (inactive) | 30 µM (inactive) | 25.9 µM (inactive) | – | – | – | – |
| CCN1C(=O)c2cc(OC)c(OC)cc2C(=O)C12OC(=O)c1cc3c(cc12)OCO3 (stereo not drawn) | 41.4 µM (inactive) | 36.8 µM (inactive) | > 100 µM (inactive) | 54.7 µM (inactive) | > 100 µM (inactive) | > 100 µM (inactive) | – | > 100 µM (inactive) | 78.9 µM (inactive) | 31.3 µM (inactive) | – | 35.6 µM (inactive) | > 100 µM (inactive) | 22.4 µM (inactive) | > 100 µM (inactive) | > 100 µM (inactive) | 80.5 µM (inactive) |
| Nc1ncc2c(n1)-c1ccccc1OC2N1CCCC1 (stereo not drawn) | > 100 µM (inactive) | > 100 µM (inactive) | > 100 µM (inactive) | – | > 100 µM (inactive) | > 100 µM (inactive) | 1.9 µM (inactive) | > 100 µM (inactive) | > 100 µM (inactive) | > 100 µM (inactive) | – | > 100 µM (inactive) | > 100 µM (inactive) | > 100 µM (inactive) | > 100 µM (inactive) | > 100 µM (inactive) | > 100 µM (inactive) |
| CN(NC(=O)c1cccs1)C1=NCCCN1 | > 100 µM (inactive) | > 100 µM (inactive) | – | > 100 µM (inactive) | > 100 µM (inactive) | > 100 µM (inactive) | > 100 µM (inactive) | > 100 µM (inactive) | > 100 µM (inactive) | – | > 100 µM (inactive) | > 100 µM (inactive) | > 100 µM (inactive) | > 100 µM (inactive) | > 100 µM (inactive) | > 100 µM (inactive) | > 100 µM (inactive) |
| CC(C)c1cccc(C(C)C)c1OS(=O)(=O)NC(=O)OC(C(F)(F)F)C(F)(F)F | 36.9 µM (inactive) | > 100 µM (inactive) | > 100 µM (inactive) | 40.5 µM (inactive) | 20 µM (inactive) | 32.7 µM (inactive) | 37.6 µM (inactive) | 24.5 µM (inactive) | 32 µM (inactive) | 33.5 µM (inactive) | – | 6.81 µM (inactive) | 36.7 µM (inactive) | – | > 100 µM (inactive) | 56.9 µM (inactive) | – |
| Cc1cc2oc3c(ccc(=O)n3C)c(=O)c2c(C)c1Cl | 31.8 µM (inactive) | 32 µM (inactive) | 67.5 µM (inactive) | > 100 µM (inactive) | – | 72.9 µM (inactive) | 37.6 µM (inactive) | 41.9 µM (inactive) | – | 56.6 µM (inactive) | 50.1 µM (inactive) | 38.1 µM (inactive) | 37.4 µM (inactive) | – | 57.7 µM (inactive) | 52.8 µM (inactive) | 40.1 µM (inactive) |
| CCOc1c(/N=N/c2ccccc2Cl)c(-c2ccccc2)nn1C(=S)S | 15.7 µM (inactive) | 22.2 µM (inactive) | 18.7 µM (inactive) | – | 23.9 µM (inactive) | 33.8 µM (inactive) | 33.6 µM (inactive) | 19 µM (inactive) | 37.8 µM (inactive) | > 100 µM (inactive) | 22.2 µM (inactive) | – | 48.2 µM (inactive) | 37.4 µM (inactive) | 37.2 µM (inactive) | – | 31.2 µM (inactive) |
| O=C(O)/C(=C\c1ccncc1)c1cccc2ccccc12 | > 100 µM (inactive) | > 100 µM (inactive) | – | – | > 100 µM (inactive) | > 100 µM (inactive) | > 100 µM (inactive) | > 100 µM (inactive) | – | > 100 µM (inactive) | > 100 µM (inactive) | > 100 µM (inactive) | > 100 µM (inactive) | > 100 µM (inactive) | > 100 µM (inactive) | > 100 µM (inactive) | – |
